Active and inactive are the calls of the source. The calls are words filed in the database; no cut-off is given here.
Assays:
Assay type in all cases: functional, cell-based
Settings in all cases: dose 0.1-1 nmol
2B4 = assay: Induction of NFAT-GFP signal in mouse 2B4 reporter cells expressing mMincle + FcRgamma at 0.1 to 1 nmol incubated for 18 hrs by flow cytometry analysis
BMDM [1] = assay: Induction of cytokine production in wild type C57BL/6 mouse BMDM cells assessed as IL-1beta secretion at 0.1 to 1 nmol incubated for 24 hrs by ELISA method
BMDM [2] = assay: Induction of cytokine production in wild type C57BL/6 mouse BMDM cells assessed as IL-6 secretion at 0.1 to 1 nmol incubated for 24 hrs by ELISA method
BMDM [3] = assay: Induction of cytokine production in wild type C57BL/6 mouse BMDM cells assessed as IL-10 secretion at 0.1 to 1 nmol incubated for 24 hrs by ELISA method

Row | Structure (SMILES) | Activity (2B4) | Activity (BMDM [1]) | Activity (BMDM [2]) | Activity (BMDM [3])
1 | CCCCCCCCOc1cc(OCCCCCCCC)cc(-c2cn(C[C@H]3O[C@H](O[C@H]4O[C@H](Cn5cc(-c6cc(OCCCCCCCC)cc(OCCCCCCCC)c6)nn5)[C@@H](O)[C@H](O)[C@H]4O)[C@H](O)[C@@H](O)[C@@H]3O)nn2)c1 | Active | inactive | Active | Active
2 | O[C@@H]1[C@@H](O)[C@@H](O[C@H]2O[C@H](Cn3cc(-c4ccccc4)nn3)[C@@H](O)[C@H](O)[C@H]2O)O[C@H](Cn2cc(-c3ccccc3)nn2)[C@H]1O | inactive | – | – | –
3 | CCCCCCCCOc1ccc(-c2cn(C[C@H]3O[C@H](O[C@H]4O[C@H](Cn5cc(-c6ccc(OCCCCCCCC)cc6OCCCCCCCC)nn5)[C@@H](O)[C@H](O)[C@H]4O)[C@H](O)[C@@H](O)[C@@H]3O)nn2)c(OCCCCCCCC)c1 | Active | Active | Active | Active
4 | CCCCCCCCOc1ccc(-c2cn(C[C@H]3O[C@H](O[C@H]4O[C@H](Cn5cc(-c6ccc(OCCCCCCCC)cc6)nn5)[C@@H](O)[C@H](O)[C@H]4O)[C@H](O)[C@@H](O)[C@@H]3O)nn2)cc1 | Active | – | – | –
5 | CCCCCCCCOc1ccc(-c2cn(C[C@H]3O[C@H](O[C@H]4O[C@H](Cn5cc(-c6ccc(OCCCCCCCC)c(OCCCCCCCC)c6)nn5)[C@@H](O)[C@H](O)[C@H]4O)[C@H](O)[C@@H](O)[C@@H]3O)nn2)cc1OCCCCCCCC | Active | inactive | inactive | inactive
6 | CCCCCCCCOc1ccccc1-c1cn(C[C@H]2O[C@H](O[C@H]3O[C@H](Cn4cc(-c5ccccc5OCCCCCCCC)nn4)[C@@H](O)[C@H](O)[C@H]3O)[C@H](O)[C@@H](O)[C@@H]2O)nn1 | Active | – | – | –
7 | CCCCCCCCOc1cccc(-c2cn(C[C@H]3O[C@H](O[C@H]4O[C@H](Cn5cc(-c6cccc(OCCCCCCCC)c6OCCCCCCCC)nn5)[C@@H](O)[C@H](O)[C@H]4O)[C@H](O)[C@@H](O)[C@@H]3O)nn2)c1OCCCCCCCC | Active | Active | Active | Active

Source: ChEMBL document CHEMBL5537210, “Probing Isosteric Replacement for Immunoadjuvant Design: Bis-Aryl Triazole Trehalolipids are Mincle Agonists” (ACS Med Chem Lett, 2024)
